Tests used:
[1] = tested on: Aspergillus fumigatus; assay: Antifungal activity against Aspergillus fumigatus 231 after 48 hrs by broth microdilution method; format: functional; conditions: Aspergillus fumigatus, 231, 48 h
[2] = tested on: Trichophyton mentagrophytes; assay: Antifungal activity against Trichophyton mentagrophytes 445 after 72 hrs by broth microdilution method; format: functional; conditions: Trichophyton mentagrophytes, 445, 72 h
[3] = tested on: Klebsiella pneumoniae; assay: Antibacterial activity against Klebsiella pneumoniae HK11750/08 after 48 hrs by broth microdilution method; format: functional; conditions: HK11750/08, 48 h
[4] = Selectivity index, ratio of IC50 for mouse 3T3 cells to MIC for Mycobacterium tuberculosis H37Rv CNCTC My 331/88; format: toxicity; conditions: read-out: Selectivity Index
[5] = tested on: Pseudomonas aeruginosa; assay: Antibacterial activity against Pseudomonas aeruginosa ATCC 9027 after 24 hrs by broth microdilution method; format: functional; conditions: ATCC 9027, 24 h
[6] = tested on: Mycobacterium kansasii; assay: Antimycobacterial activity against Mycobacterium kansasii CNCTC My 235/80 after 21 days by micromethod; format: functional; conditions: CNCTC My 235/80, 504 h
[7] = tested on: Mycobacterium tuberculosis; assay: Antimycobacterial activity against Mycobacterium tuberculosis H37Rv CNCTC My 331/88 after 14 days by micromethod; format: functional; conditions: H37Rv CNCTC My 331/88, 336 h
[8] = tested on: Mycobacterium kansasii; assay: Antimycobacterial activity against Mycobacterium kansasii CNCTC My 235/80 after 14 days by micromethod; format: functional; conditions: CNCTC My 235/80, 336 h
[9] = tested on: Staphylococcus aureus; assay: Antibacterial activity against methicillin-resistant Staphylococcus aureus HK5996/08 after 24 hrs by broth microdilution method; format: functional; conditions: HK5996/08, 24 h
[10] = tested on: Klebsiella pneumoniae; assay: Antibacterial activity against extended spectrum beta-lactamase producing Klebsiella pneumoniae HK14368/08 after 48 hrs by broth microdilution method; format: functional; conditions: HK14368/08, 48 h
[11] = tested on: Mycobacterium avium; assay: Antimycobacterial activity against Mycobacterium avium CNCTC My 330/80 after 14 days by micromethod; format: functional; conditions: CNCTC My 330/80, 336 h
[12] = tested on: Klebsiella pneumoniae; assay: Antibacterial activity against Klebsiella pneumoniae HK11750/08 after 24 hrs by broth microdilution method; format: functional; conditions: HK11750/08, 24 h
[13] = tested on: Trichosporon asahii; assay: Antifungal activity against Trichosporon asahii 1188 after 48 hrs by broth microdilution method; format: functional; conditions: Trichosporon asahii, 1188, 48 h
[14] = tested on: Trichophyton mentagrophytes; assay: Antifungal activity against Trichophyton mentagrophytes 445 after 120 hrs by broth microdilution method; format: functional; conditions: Trichophyton mentagrophytes, 445, 120 h
[15] = tested on: Mycobacterium kansasii; assay: Antimycobacterial activity against Mycobacterium kansasii CNCTC My 235/80 after 7 days by micromethod; format: functional; conditions: CNCTC My 235/80, 168 h
[16] = tested on: CHO-K1; assay: Cytotoxicity against CHOK1 cells after 24 hrs by MTT assay; format: cell-based; conditions: Cricetulus griseus, CHO-K1, 24 h
[17] = tested on: Enterococcus sp.; assay: Antibacterial activity against Enterococcus sp. HK14365/08 after 24 hrs by broth microdilution method; format: functional; conditions: HK14365/08, 24 h
[18] = tested on: Staphylococcus aureus; assay: Antibacterial activity against Staphylococcus aureus ATCC 6538 after 24 hrs by broth microdilution method; format: functional; conditions: ATCC 6538, 24 h
[19] = tested on: Trichosporon asahii; assay: Antifungal activity against Trichosporon asahii 1188 after 24 hrs by broth microdilution method; format: functional; conditions: Trichosporon asahii, 1188, 24 h
[20] = tested on: Candida tropicalis; assay: Antifungal activity against Candida tropicalis 156 after 24 hrs by broth microdilution method; format: functional; conditions: Candida tropicalis, 156, 24 h
[21] = tested on: Pseudomonas aeruginosa; assay: Antibacterial activity against Pseudomonas aeruginosa ATCC 9027 after 48 hrs by broth microdilution method; format: functional; conditions: ATCC 9027, 48 h
[22] = tested on: Pichia kudriavzevii; assay: Antifungal activity against Candida krusei E28 after 24 hrs by broth microdilution method; format: functional; conditions: E28, 24 h
[23] = tested on: Escherichia coli; assay: Antibacterial activity against Escherichia coli ATCC 8739 after 24 hrs by broth microdilution method; format: functional; conditions: ATCC 8739, 24 h
[24] = tested on: Lichtheimia corymbifera; assay: Antifungal activity against Absidia corymbifera 272 after 48 hrs by broth microdilution method; format: functional; conditions: Lichtheimia corymbifera, 272, 48 h
[25] = tested on: Enterococcus sp.; assay: Antibacterial activity against Enterococcus sp. HK14365/08 after 48 hrs by broth microdilution method; format: functional; conditions: HK14365/08, 48 h
[26] = tested on: HaCaT; assay: Cytotoxicity against human HaCaT cells after 72 hrs by neutral red uptake assay; format: cell-based
[27] = tested on: Staphylococcus aureus; assay: Antibacterial activity against Staphylococcus aureus ATCC 6538 after 48 hrs by broth microdilution method; format: functional; conditions: ATCC 6538, 48 h
[28] = tested on: Mycobacterium kansasii; assay: Antimycobacterial activity against Mycobacterium kansasii isolate 6509/96 after 14 days by micromethod; format: functional; conditions: isolate 6509/96, 336 h
[29] = tested on: Candida albicans; assay: Antifungal activity against Candida albicans ATCC 44859 after 24 hrs by broth microdilution method; format: functional; conditions: ATCC 44859, 24 h
[30] = Selectivity index, ratio of IC50 for CHOK1 cells to MIC for Mycobacterium tuberculosis H37Rv CNCTC My 331/88; format: toxicity; conditions: hamster, CHO-K1 cells; read-out: Selectivity Index
[31] = tested on: Mycobacterium kansasii; assay: Antimycobacterial activity against Mycobacterium kansasii isolate 6509/96 after 7 days by micromethod; format: functional; conditions: isolate 6509/96, 168 h
[32] = tested on: Mycobacterium kansasii; assay: Antimycobacterial activity against Mycobacterium kansasii isolate 6509/96 after 21 days by micromethod; format: functional; conditions: isolate 6509/96, 504 h
[33] = tested on: Klebsiella pneumoniae; assay: Antibacterial activity against extended spectrum beta-lactamase producing Klebsiella pneumoniae HK14368/08 after 24 hrs by broth microdilution method; format: functional; conditions: HK14368/08, 24 h
[34] = tested on: Escherichia coli; assay: Antibacterial activity against Escherichia coli ATCC 8739 after 48 hrs by broth microdilution method; format: functional; conditions: ATCC 8739, 48 h
[35] = tested on: Staphylococcus aureus; assay: Antibacterial activity against methicillin-resistant Staphylococcus aureus HK5996/08 after 48 hrs by broth microdilution method; format: functional; conditions: HK5996/08, 48 h
[36] = tested on: Nakaseomyces glabratus; assay: Antifungal activity against Candida glabrata 20/I after 24 hrs by broth microdilution method; format: functional
[37] = tested on: Pichia kudriavzevii; assay: Antifungal activity against Candida krusei E28 after 48 hrs by broth microdilution method; format: functional; conditions: E28, 48 h
[38] = Selectivity index, ratio of IC50 for human HaCaT cells to MIC for Mycobacterium tuberculosis H37Rv CNCTC My 331/88; format: toxicity; conditions: read-out: Selectivity Index
[39] = tested on: Candida albicans; assay: Antifungal activity against Candida albicans ATCC 44859 after 48 hrs by broth microdilution method; format: functional; conditions: ATCC 44859, 48 h
[40] = tested on: Nakaseomyces glabratus; assay: Antifungal activity against Candida glabrata 20/I after 48 hrs by broth microdilution method; format: functional
[41] = tested on: Aspergillus fumigatus; assay: Antifungal activity against Aspergillus fumigatus 231 after 24 hrs by broth microdilution method; format: functional; conditions: Aspergillus fumigatus, 231, 24 h
[42] = tested on: Candida tropicalis; assay: Antifungal activity against Candida tropicalis 156 after 48 hrs by broth microdilution method; format: functional; conditions: Candida tropicalis, 156, 48 h
[43] = tested on: Lichtheimia corymbifera; assay: Antifungal activity against Absidia corymbifera 272 after 24 hrs by broth microdilution method; format: functional; conditions: Lichtheimia corymbifera, 272, 24 h
[44] = tested on: Mycobacterium tuberculosis; assay: Antimycobacterial activity against Mycobacterium tuberculosis H37Rv CNCTC My 331/88 after 21 days by micromethod; format: functional; conditions: H37Rv CNCTC My 331/88, 504 h
[45] = tested on: Mycobacterium avium; assay: Antimycobacterial activity against Mycobacterium avium CNCTC My 330/80 after 21 days by micromethod; format: functional; conditions: CNCTC My 330/80, 504 h
[46] = tested on: Staphylococcus epidermidis; assay: Antibacterial activity against Staphylococcus epidermidis HK6966/08 after 24 hrs by broth microdilution method; format: functional; conditions: HK6966/08, 24 h
[47] = tested on: Staphylococcus epidermidis; assay: Antibacterial activity against Staphylococcus epidermidis HK6966/08 after 48 hrs by broth microdilution method; format: functional; conditions: HK6966/08, 48 h

COc1ccc(Cn2nnc(-c3cc([N+](=O)[O-])cc([N+](=O)[O-])c3)n2)cc1
> 500 µM: MIC [1] | MIC [2] | MIC [3] | MIC [5] | MIC [10] | MIC [12] | MIC [13] | MIC [14] | MIC [17] | MIC [19] | MIC [20] | MIC [21] | MIC [22] | MIC [23] | MIC [24] | MIC [25] | MIC [29] | MIC [33] | MIC [34] | MIC [36] | MIC [37] | MIC [39] | MIC [40] | MIC [41] | MIC [42] | MIC [43]
0.125 µM: MIC99 [8] | MIC99 [15] | MIC99 [32]
96 µM: IC50 [16]
250 µM: MIC [9] | MIC [35]
4 µM: MIC99 [11]
0.25 µM: MIC99 [6]
0.03 µM: MIC99 [7] | MIC99 [44]
> 250 µM: MIC [18] | MIC [27]
> 1000: selectivity ratio [4] | selectivity ratio [30] | selectivity ratio [38]
> 100 µM: IC50 [26]
8 µM: MIC99 [45]
0.06 µM: MIC99 [28] | MIC99 [31]

COc1ccc(Cn2nnnc2-c2cc([N+](=O)[O-])cc([N+](=O)[O-])c2)cc1
31.2 µM: MIC [9]
8 µM: MIC99 [7] | MIC99 [28] | MIC99 [31] | MIC99 [44]
21 µM: IC50 [16]
500 µM: MIC [1] | MIC [2] | MIC [13] | MIC [14] | MIC [19] | MIC [20] | MIC [24] | MIC [36] | MIC [40] | MIC [41] | MIC [42] | MIC [43]
15.6 µM: MIC [35]
125 µM: MIC [3] | MIC [10] | MIC [23]
250 µM: MIC [12] | MIC [22] | MIC [29] | MIC [33] | MIC [37] | MIC [39]
> 500 µM: MIC [5] | MIC [21]
32 µM: MIC99 [6] | MIC99 [8] | MIC99 [45]
62.5 µM: MIC [17] | MIC [18] | MIC [25] | MIC [27] | MIC [46] | MIC [34] | MIC [47]
16 µM: MIC99 [11] | MIC99 [15] | MIC99 [32]
